{"source": "patent US9371335B2", "about": "“Spirothienopyran-piperidine derivatives as ORL-1 receptor antagonists for their use in the treatment of alcohol dependence and abuse” (Eli Lilly and Company, priority 2011, dated 2016)", "key": {"[1]": {"system": "msP rats", "test": "Stress-induced (yohimbine) reinstatement of ethanol-seeking in msP rats", "assay_type": "in vivo, rat", "conditions": "for Reduction vs. Vehicle (lever presses, yohimbine reinstatement) / Avg Lever Presses (Drug-treated): male msP rats, 30 mg/kg oral; for Avg Lever Presses (Drug-treated): yohimbine 2.0 mg/kg ip; for stress-induced reinstatement of ethanol-seeking: msP rats, result in words", "excerpt": "Stress-Induced Reinstatement in msP Rats:\nStress is a key trigger for relapse to drug- and alcohol-seeking in humans and rodents (Sinha R (2008) Chronic stress, drug use, and vulnerability to addiction. Ann N Y Acad Sci 1141:105-130), and can be modeled in rats using a stress-induced reinstatement procedure. In this procedure, stress-induced reinstatement of alcohol-seeking is elicited by administration of the alpha2 adrenoceptor antagonist yohimbine, a known pharmacological stressor (Le A D, Harding S, Juzytsch W, Funk D and Shaham Y (2005) Role of alpha-2 adrenoceptors in stress-induced reinstatement of alcohol seeking and alcohol self-administration in rats. Psychopharmacology (Berl) 179:366-373).\nMale msP rats are obtained from the University of Camerino (Marche, Italy) and individually housed with ad libitum access to water and standard laboratory chow. Rats are trained to lever press for 10% ethanol in water (v/v) in standard operant chambers (MED Associates, Inc., St. Albans, Vt.) located in sound-attenuating, ventilated environmental cubicles. The chambers consist of two stainless steel and two clear Plexiglas walls. The floor grid of the operant chambers consists of 0.5 cm diameter stainless steel bars placed approximately 1.5 cm apart. Each operant chamber is equipped with a drinking reservoir 4 cm above the grid floor, with two retractable operant levers located approximately 3 cm on either side of the drinking receptacle. Fluid delivery, lever presses, and presentation of visual stimuli (illumination of a white house light) are controlled by an IBM compatible computer for offline analysis.\nRats are first trained to self-administer ethanol solution in 30-min daily operant sessions under a FR1 schedule of reinforcement, in which each response on the active lever results in delivery of 0.1 ml of ethanol. Each ethanol delivery is associated with a 5-sec time-out signalled by illumination of a white house light. Alcohol self-administration training continues until stable baseline responding is achieved. […] The procedure of each session is the same as ethanol self-administration sessions except that the lever responses are no longer reinforced. Animals are pre-treated with vehicle for 3 days before the initial administration of ORL-1 receptor antagonists in order to familiarize them with the oral administration procedure. The msP rats are then subjected to the reinstatement test conducted under the same extinction conditions. Reinstatement consists of oral administration of vehicle or test compound (3 or 30 mg/kg, n=10/group, solubilized in a 1:1 mixture of distilled water and 1M H3PO4, using gentle warming in a 45-60° C. water bath), followed 30-min later by intraperitoneal administration of yohimbine (2.0 mg/kg) 30-min before the operant session."}, "[2]": {"system": "extracellular dopamine (DA) in the rat nucleus accumbens", "test": "Ethanol-stimulated increases in extracellular dopamine levels in the nucleus accumbens (microdialysis)", "assay_type": "in vivo, Sprague-Dawley rats", "excerpt": "Ethanol-Stimulated Increases in Extracellular Dopamine Levels in the Nucleus Accumbens:\nMale Sprague-Dawley rats with a body weight of 260-300 g from Taconic Farms (Germantown, N.Y.) are implanted with a guide cannula (Bioanalytical Systems Inc, West Lafayette, Ind.) in the nucleus accumbens by the vendor 5-7 days before the experiment. Stereotaxic coordinates for the nucleus accumbens cannula are: A (anterior to bregma), 1.7 mm; L (lateral from the midsagittal suture, right side), 1.0 mm; and V (ventral from the dura surface), −6.0 mm (Paxinos and Watson, 1986). A concentric type probe (BR-2) from Bioanalytical Systems Inc. (West Lafayette, Ind.) is flushed with water and carefully inserted through the cannula about 16 hours before the experiment so that 2 mm of the membrane tip extends below the end of the guide cannula. The rat is then placed in a plastic test bowl to acclimate overnight. Based on methods modified from Melendez et al. (Melendez R I, Rodd-Henricks Z A, McBride W J and Murphy J M (2003), Alcohol stimulates the release of dopamine in the ventral pallidum but not in the globus pallidus: a dual-probe microdialysis study. Neuropsychopharmacology 28:939-946), the rat is connected to a fraction collection system for freely moving animals on the morning of the experiment (Raturn, BioAnalytical Systems Inc, West Lafayette, Ind.). The input tube of the dialysis probe is connected to a syringe pump (BeeHive and BabyBee, Bioanalytical Systems Inc, West Lafayette, Ind.) which delivers an artificial cerebrospinal fluid (150 mM NaCl, 3 mM KCl, 1.7 mM CaCl2 and 0.9 mM MgCl2 ([…])) to the probe at a final collection rate of 1.5 μL/min. The output tubes from the rats are attached to a refrigerated fraction collector (Bioanalytical Systems Inc, West Lafayette, Ind.). After a period of about an hour at an initial perfusion rate of 5.0 μL/min, the flow rate is decreased to 2.0 μL/min for equilibration of the probe and establishment of stable baseline levels for 1 hour, then collection of 20 minute fractions is started. Four baseline samples are collected before injection of any drugs.\nTest compound is administered orally at 30 mg/kg (2 ml/kg dose volume, dissolved in a vehicle consisting of 20% Captisol® in 25 mM phosphate buffer at pH=3). The compound is administered either alone (10 min into the 4th sample; 0 min time point) or in combination with ethanol (10 min into the 1st sample; −60 min time point). Ethanol is administered intraperitoneally (ip) at a dose of 1.1 g/kg in a 15% (v/v) solution in 0.9% saline in a volume of 2.9 ml per rat. Ethanol is administered 10 min into the 4th sample (0 min time point). Dialysate samples are transferred to an Alcott 718 Autosampler/Injector with the sample cooling tray set to 5° C. (Alcott Inc., Norcross, Ga.). […]"}, "[3]": {"conditions": "compound 30 mg/kg oral + EtOH 1.1 g/kg ip"}}, "data": [{"smiles": "Cc1nn(-c2ncccc2F)cc1CN1CCC2(CC1)OCC(F)(F)c1cc(Cl)sc12", "note": "[Compound 2, 2-Chloro-4,4-difluoro-1′-[[1-(3-fluoro-2-pyridyl)-3-methyl-pyrazol-4-yl]methyl]spiro[5H-thieno[2,3-c]pyran-7,4′-piperidine]]", "values": [{"measurement": "Reduction vs. Vehicle (lever presses, yohimbine reinstatement)", "setting": "[1]", "result": 69.3, "unit": "%"}, {"measurement": "Avg Lever Presses (Drug-treated)", "setting": "[1]", "result": 5.5}, {"measurement": "stress-induced reinstatement of ethanol-seeking", "setting": "[1]", "result": "reduce stress-induced reinstatement of ethanol-seeking"}]}, {"smiles": "Cc1nn(-c2ncccc2CO)cc1CN1CCC2(CC1)OCC(F)(F)c1cc(Cl)sc12", "note": "[Compound 1, [2-[4-[(2-chloro-4,4-difluoro-spiro[5H-thieno[2,3-c]pyran-7,4′-piperidine]-1′-yl)methyl]-3-methyl-pyrazol-1-yl]-3-pyridyl]methanol]", "values": [{"measurement": "Reduction vs. Vehicle (lever presses, yohimbine reinstatement)", "setting": "[1]", "result": 72.7, "unit": "%"}, {"measurement": "Avg Lever Presses (Drug-treated)", "setting": "[1]", "result": 4.8}, {"measurement": "stress-induced reinstatement of ethanol-seeking", "setting": "[1]", "result": "reduce stress-induced reinstatement of ethanol-seeking"}, {"measurement": "Mean DA level (% of baseline) during 120 min period post-EtOH injection", "setting": "[2]; [3]", "result": "102.78 % of baseline"}, {"measurement": "Reduction of DA response relative to Vehicle", "setting": "[2]; [3]", "result": 88.16, "unit": "%"}, {"measurement": "Mean DA level (% of baseline) during 120 min period post-EtOH injection", "setting": "[2]; compound 30 mg/kg oral + Vehicle (no ethanol)", "result": "98.53 % of baseline"}, {"measurement": "ethanol-stimulated increase in extracellular DA concentration in the nucleus accumbens", "setting": "[2]; result in words", "result": "prevent the increase in extracellular DA concentrations in the nucleus accumbens"}]}]}
